This passage reports IC50 results from patent publication US11365188B2, “JAK inhibitors” (priority 2018, dated 2022).

Common to all, as to type: biochemical
One experiment has as its target JAK2 (Homo sapiens, UniProt O60674). Nature of the experiment: JAK2 Assay (Caliper EZ Reader, fluoresceinated peptide). The settings on record: ATP 11.4 μM; JAK2 0.25 nM; 15 minutes at room temperature; read-out: JAK2 inhibition.
A further experiment has as its target JAK1 (Homo sapiens, UniProt P23458). As to the kind of experiment: JAK Kinase Assay (JAK1, Caliper EZ Reader, fluoresceinated peptide). The settings on record: ATP 76.5 μM; JAK1 10 nM; 120 minutes at room temperature; read-out: JAK1 inhibition.
For a further experiment, the target named is T1, JAK3 (Homo sapiens, UniProt P52333).
T1 sequence (P52333 1-1124): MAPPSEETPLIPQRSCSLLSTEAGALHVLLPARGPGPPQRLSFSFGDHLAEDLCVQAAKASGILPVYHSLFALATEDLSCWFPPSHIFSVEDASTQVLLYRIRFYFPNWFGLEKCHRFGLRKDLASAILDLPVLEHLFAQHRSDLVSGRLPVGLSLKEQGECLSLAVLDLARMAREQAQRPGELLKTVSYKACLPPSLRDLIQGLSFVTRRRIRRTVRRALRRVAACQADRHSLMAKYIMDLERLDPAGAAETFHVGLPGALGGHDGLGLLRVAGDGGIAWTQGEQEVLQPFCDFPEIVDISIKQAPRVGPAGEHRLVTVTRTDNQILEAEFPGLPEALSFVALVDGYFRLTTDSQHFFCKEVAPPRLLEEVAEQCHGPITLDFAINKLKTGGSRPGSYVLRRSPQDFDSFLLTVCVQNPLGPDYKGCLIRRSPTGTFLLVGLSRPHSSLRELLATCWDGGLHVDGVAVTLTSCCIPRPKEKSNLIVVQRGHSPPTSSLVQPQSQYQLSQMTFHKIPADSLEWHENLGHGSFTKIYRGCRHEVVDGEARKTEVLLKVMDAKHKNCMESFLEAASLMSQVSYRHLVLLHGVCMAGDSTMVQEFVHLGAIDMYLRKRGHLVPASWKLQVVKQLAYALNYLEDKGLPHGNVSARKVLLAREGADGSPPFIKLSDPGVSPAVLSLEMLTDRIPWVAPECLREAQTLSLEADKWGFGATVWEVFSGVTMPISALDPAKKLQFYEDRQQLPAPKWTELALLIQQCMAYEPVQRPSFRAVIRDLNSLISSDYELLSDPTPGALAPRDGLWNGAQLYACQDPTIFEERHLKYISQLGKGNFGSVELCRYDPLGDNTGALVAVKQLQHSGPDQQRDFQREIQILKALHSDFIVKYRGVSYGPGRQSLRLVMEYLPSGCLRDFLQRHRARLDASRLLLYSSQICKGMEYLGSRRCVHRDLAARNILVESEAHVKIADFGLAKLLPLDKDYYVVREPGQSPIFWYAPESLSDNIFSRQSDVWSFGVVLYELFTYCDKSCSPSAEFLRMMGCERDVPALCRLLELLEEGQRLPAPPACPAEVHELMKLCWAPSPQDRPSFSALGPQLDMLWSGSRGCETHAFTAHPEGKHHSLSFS
Nature of the experiment: JAK3 Assay (Caliper EZ Reader, fluoresceinated peptide). The settings on record: ATP 3.5 μM; JAK3 0.5 nM; 30 minutes at room temperature; read-out: JAK3 inhibition.

Another experiment concerns the target TYK2 (Homo sapiens, UniProt P29597). As to the kind of experiment: TYK2 Assay (Caliper EZ Reader, fluoresceinated peptide). The settings on record: ATP 35.4 μM; TYK2 10 nM; 10 minutes at room temperature; read-out: TYK2 inhibition. How it is done:
384-well plates in the left foot butoxy measured progress. The final assay volume was 25 μL, 250 nL 100× compounds, 10 μL enzyme mix and 15 μL substrate mix (fluoresceinated peptide and ATP) in assay buffer (50 mM HEPES (pH 7.5), 10 mM MgCl2, 0.01% TritonX-100, 0.01% Brij35, 0.5 mM EGTA and 2 mM DTT) prepared as test compound. B mixing the TYK2 with substrates and test compounds to start the reaction. The reaction mixture was incubated for 10 minutes at room temperature, then added 30 μL stop buffer for each sample to terminate the reaction with 50 mM EDTA. After termination of the kinase reaction, the proportion of phosphorylated product was determined as a fraction of total peptide substrate using Caliper EZ Reader 1. Inhibition data were calculated by comparison with 100% of the reaction mixture without enzyme inhibition and vehicle-only reaction mixture billion % inhibition compared. The final concentration of reagents in the assays is: ATP, 35.4 μM; TYK2 fluorescent peptide (5-FAM-KKKKEEIYFFF-CONH2), 3 μM; TYK2, 10 nM; and DMSO, 1% Dose response curve were generated to determine the concentration required for IC50 of TYK2 activity.

Chain of JAK2 (O60674 whole entry, species assumed): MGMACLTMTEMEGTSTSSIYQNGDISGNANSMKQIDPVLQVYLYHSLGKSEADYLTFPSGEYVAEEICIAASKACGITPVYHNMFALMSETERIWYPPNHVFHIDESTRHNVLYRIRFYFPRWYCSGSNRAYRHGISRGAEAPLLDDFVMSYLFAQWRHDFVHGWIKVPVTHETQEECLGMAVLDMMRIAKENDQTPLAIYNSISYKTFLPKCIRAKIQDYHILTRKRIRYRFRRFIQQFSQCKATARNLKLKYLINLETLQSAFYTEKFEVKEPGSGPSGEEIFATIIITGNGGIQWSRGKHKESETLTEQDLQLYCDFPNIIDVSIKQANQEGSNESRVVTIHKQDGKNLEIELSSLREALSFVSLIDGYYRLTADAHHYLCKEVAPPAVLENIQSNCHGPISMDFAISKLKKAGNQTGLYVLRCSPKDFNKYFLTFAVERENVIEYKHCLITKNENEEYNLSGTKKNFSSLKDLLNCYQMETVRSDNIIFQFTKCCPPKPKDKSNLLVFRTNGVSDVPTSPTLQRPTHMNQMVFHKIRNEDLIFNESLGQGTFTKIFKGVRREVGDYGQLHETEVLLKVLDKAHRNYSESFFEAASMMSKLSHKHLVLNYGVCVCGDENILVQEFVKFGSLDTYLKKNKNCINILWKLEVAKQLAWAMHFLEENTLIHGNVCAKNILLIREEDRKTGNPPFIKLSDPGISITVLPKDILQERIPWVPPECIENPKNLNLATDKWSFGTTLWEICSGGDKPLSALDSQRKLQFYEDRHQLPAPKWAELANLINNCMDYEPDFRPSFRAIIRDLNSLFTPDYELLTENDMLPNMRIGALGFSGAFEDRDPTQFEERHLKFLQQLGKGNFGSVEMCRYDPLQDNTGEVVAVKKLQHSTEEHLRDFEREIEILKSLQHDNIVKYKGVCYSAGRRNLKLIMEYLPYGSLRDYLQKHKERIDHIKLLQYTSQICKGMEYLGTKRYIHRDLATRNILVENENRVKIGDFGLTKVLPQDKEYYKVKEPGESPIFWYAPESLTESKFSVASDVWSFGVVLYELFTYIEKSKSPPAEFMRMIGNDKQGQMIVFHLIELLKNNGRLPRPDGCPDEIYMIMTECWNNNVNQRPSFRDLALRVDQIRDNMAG
Chain of TYK2 (P29597 whole entry, species assumed): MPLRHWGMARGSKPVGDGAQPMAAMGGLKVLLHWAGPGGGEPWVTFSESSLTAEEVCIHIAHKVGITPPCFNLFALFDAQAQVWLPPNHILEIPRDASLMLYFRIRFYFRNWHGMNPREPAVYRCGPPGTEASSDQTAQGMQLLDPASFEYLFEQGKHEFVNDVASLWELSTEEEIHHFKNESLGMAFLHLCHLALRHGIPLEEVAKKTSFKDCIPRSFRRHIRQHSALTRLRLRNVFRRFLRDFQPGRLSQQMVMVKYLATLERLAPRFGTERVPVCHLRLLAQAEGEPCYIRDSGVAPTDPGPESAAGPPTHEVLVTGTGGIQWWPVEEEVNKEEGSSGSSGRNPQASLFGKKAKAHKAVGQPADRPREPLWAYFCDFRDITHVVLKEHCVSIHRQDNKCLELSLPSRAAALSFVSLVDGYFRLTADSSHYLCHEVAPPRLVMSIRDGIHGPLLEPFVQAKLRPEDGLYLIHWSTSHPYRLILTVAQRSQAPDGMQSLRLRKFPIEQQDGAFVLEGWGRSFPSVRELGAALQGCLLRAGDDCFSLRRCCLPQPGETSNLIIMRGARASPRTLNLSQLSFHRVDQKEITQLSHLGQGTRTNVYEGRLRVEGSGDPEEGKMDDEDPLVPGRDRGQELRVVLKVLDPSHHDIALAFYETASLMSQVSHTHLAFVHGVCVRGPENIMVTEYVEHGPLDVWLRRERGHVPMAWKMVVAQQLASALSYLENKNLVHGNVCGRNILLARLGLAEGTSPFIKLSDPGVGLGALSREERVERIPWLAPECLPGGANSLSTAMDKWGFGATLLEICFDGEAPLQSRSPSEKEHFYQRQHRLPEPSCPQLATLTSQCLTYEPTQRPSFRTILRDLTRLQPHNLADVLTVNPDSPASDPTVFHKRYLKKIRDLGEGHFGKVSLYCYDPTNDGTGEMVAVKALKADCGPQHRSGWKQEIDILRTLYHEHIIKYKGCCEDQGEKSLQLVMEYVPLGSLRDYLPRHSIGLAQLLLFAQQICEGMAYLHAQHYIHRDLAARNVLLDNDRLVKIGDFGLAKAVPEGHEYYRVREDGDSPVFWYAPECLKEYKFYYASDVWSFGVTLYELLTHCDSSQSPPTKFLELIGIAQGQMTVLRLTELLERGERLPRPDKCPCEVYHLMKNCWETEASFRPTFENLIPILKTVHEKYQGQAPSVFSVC
Chain of JAK1 (P23458 whole entry, species assumed): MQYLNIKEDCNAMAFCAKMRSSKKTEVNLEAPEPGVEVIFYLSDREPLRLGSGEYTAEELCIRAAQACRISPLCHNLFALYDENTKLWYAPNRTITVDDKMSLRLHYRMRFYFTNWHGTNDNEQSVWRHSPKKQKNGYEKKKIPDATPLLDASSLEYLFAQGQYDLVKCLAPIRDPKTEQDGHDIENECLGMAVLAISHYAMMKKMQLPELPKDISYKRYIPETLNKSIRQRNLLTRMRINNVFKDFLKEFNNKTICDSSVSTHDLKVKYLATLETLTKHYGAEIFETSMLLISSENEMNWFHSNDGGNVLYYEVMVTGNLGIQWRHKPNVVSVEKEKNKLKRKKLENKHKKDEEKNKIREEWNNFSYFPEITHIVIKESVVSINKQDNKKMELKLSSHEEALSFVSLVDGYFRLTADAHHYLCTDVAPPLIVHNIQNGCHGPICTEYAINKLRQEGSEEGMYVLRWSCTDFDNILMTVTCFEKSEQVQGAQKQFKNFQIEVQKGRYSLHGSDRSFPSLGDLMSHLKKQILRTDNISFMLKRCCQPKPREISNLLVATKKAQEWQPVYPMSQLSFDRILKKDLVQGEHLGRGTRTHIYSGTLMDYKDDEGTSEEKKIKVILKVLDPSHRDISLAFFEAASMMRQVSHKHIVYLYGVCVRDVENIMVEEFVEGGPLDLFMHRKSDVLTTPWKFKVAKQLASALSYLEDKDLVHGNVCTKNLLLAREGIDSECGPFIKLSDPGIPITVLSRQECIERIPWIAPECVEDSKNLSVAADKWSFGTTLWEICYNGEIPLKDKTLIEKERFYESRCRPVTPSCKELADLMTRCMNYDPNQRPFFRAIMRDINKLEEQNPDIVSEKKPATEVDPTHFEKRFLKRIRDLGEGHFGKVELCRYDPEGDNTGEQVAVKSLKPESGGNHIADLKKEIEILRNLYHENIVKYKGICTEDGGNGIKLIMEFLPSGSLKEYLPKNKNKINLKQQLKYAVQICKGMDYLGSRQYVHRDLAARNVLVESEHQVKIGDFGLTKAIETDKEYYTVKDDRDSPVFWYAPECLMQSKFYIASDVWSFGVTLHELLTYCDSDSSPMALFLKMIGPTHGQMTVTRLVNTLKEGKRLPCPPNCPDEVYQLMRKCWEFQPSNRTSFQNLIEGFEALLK

With `CN(c1ncnc2[nH]ccc12)C1CC2(C1)CN(C(=O)c1ccc(C#N)c(F)c1)C2` [Compound 1, 2-fluoro-4-(6-(methyl(7H-pyrrolo[2,3-d]pyrimidin-4-yl)amino)-2-azaspiro[3.3]heptane-2-carbonyl)benzonitrile], the IC50 is 1000 to 10000 nM on JAK2, 10 to 100 nM on JAK1, not below 10000 nM at JAK3 and not below 10000 nM at TYK2.
As for `CN(c1ncnc2[nH]ccc12)C1CC2(C1)CN(C(=O)c1ccc(C#N)cc1F)C2` [Compound 14, 3-fluoro-4-(6-(methyl(7H-pyrrolo[2,3-d]pyrimidin-4-yl)amino)-2-azaspiro[3.3]heptane-2-carbonyl)benzonitrile], the IC50 at JAK2 is 100 to 1000 nM; at JAK1, 10 to 100 nM; on JAK3, not below 10000 nM; on TYK2 it was not below 10000 nM.
With `COc1ccc(C(=O)N2CC3(CC(N(C)c4ncnc5[nH]ccc45)C3)C2)cc1` [Compound 24, (4-methoxyphenyl)(6-(methyl(7H-pyrrolo[2,3-d]pyrimidin-4-yl)amino)-2-azaspiro[3.3]heptan-2-yl)methanone], the IC50 is 1000 to 10000 nM at JAK2, 10 to 100 nM on JAK1, not below 10000 nM at JAK3 and not below 10000 nM on TYK2.
In the case of `CN(c1ncnc2[nH]ccc12)C1CC2(C1)CN(C(=O)c1ccc(Cl)cc1)C2` [Compound 25, (4-chlorophenyl)(6-(methyl(7H-pyrrolo[2,3-d]pyrimidin-4-yl)amino)-2-azaspiro[3.3]heptan-2-yl)methanone], the IC50 at JAK2 was 1000 to 10000 nM; at JAK1, 10 to 100 nM; at JAK3, not below 10000 nM; at TYK2, not below 10000 nM.
For `C#Cc1ccc(C(=O)N2CC3(CC(N(C)c4ncnc5[nH]ccc45)C3)C2)cc1` [Compound 26, (4-ethynylphenyl)(6-(methyl(7H-pyrrolo[2,3-d]pyrimidin-4-yl)amino)-2-azaspiro[3.3]heptan-2-yl)methanone], the IC50 on JAK2 was 100 to 1000 nM; on JAK1, not above 10 nM; at JAK3, not below 10000 nM; on TYK2, 1000 to 10000 nM.
Regarding `CN(c1ncnc2[nH]ccc12)C1CC2(C1)CN(C(=O)c1ccc(F)cc1)C2` [Compound 27, (4-fluorophenyl)(6-(methyl(7H-pyrrolo[2,3-d]pyrimidin-4-yl)amino)-2-azaspiro[3.3]heptan-2-yl)methanone], the IC50 on JAK2 is 1000 to 10000 nM; at JAK1 it was 10 to 100 nM; at JAK3, not below 10000 nM; at TYK2 it was not below 10000 nM.
For `Cc1ccsc1C(=O)N1CC2(CC(N(C)c3ncnc4[nH]ccc34)C2)C1` [Compound 28, (6-(methyl(7H-pyrrolo[2,3-d]pyrimidin-4-yl)amino)-2-azaspiro[3.3]heptan-2-yl)(3-methylthiophen-2-yl)methanone], the IC50 on JAK2 was 100 to 1000 nM; at JAK1 it was 10 to 100 nM; on JAK3, not below 10000 nM; on TYK2, not below 10000 nM.
As to `CN(c1ncnc2[nH]ccc12)C1CC2(C1)CN(C(=O)c1cc3ccccc3[nH]1)C2` [Compound 30, (1H-indol-2-yl)(6-(methyl(7H-pyrrolo[2,3-d]pyrimidin-4-yl)amino)-2-azaspiro[3.3]heptan-2-yl)methanone], the IC50 at JAK2 is 100 to 1000 nM; on JAK1, 10 to 100 nM; on JAK3, not below 10000 nM; on TYK2, 1000 to 10000 nM.
The like results for `CN(c1ncnc2[nH]ccc12)C1CC2(C1)CN(C(=O)c1ccc(C(F)(F)F)cc1)C2` [Compound 31, (6-(methyl(7H-pyrrolo[2,3-d]pyrimidin-4-yl)amino)-2-azaspiro[3.3]heptan-2-yl)(4-(trifluoromethyl)phenyl)methanone] were, in that order, 1000 to 10000 nM, 100 to 1000 nM, not below 10000 nM and not below 10000 nM.
`CN(c1ncnc2[nH]ccc12)C1CC2(C1)CN(C(=O)c1ccc(Cl)cn1)C2` [Compound 32, (5-chloropyridin-2-yl)(6-(methyl(7H-pyrrolo[2,3-d]pyrimidin-4-yl)amino)-2-azaspiro[3.3]heptan-2-yl)methanone]: the IC50 is 1000 to 10000 nM at JAK2, 10 to 100 nM at JAK1, not below 10000 nM at JAK3 and not below 10000 nM on TYK2.
For the compound `CN(c1ncnc2[nH]ccc12)C1CC2(C1)CN(C(=O)Nc1cccc(Cl)c1)C2` [Compound 33, N-(3-chlorophenyl)-6-(methyl(7H-pyrrolo[2,3-d]pyrimidin-4-yl)amino)-2-azaspiro[3.3]heptane-2-carboxamide], the IC50 at JAK2 is 1000 to 10000 nM; on JAK1, 100 to 1000 nM; on JAK3, not below 10000 nM; at TYK2 it was not below 10000 nM.
`CN(c1ncnc2[nH]ccc12)C1CC2(C1)CN(C(=O)c1ccc(C#N)c(F)c1F)C2` [Compound 53, 2,3-difluoro-4-(6-(methyl(7H-pyrrolo[2,3-d]pyrimidin-4-yl)amino)-2-azaspiro[3.3]heptane-2-carbonyl)benzonitrile]: the IC50 is 100 to 1000 nM on JAK2, not above 10 nM on JAK1, 1000 to 10000 nM at JAK3 and 1000 to 10000 nM at TYK2.
With `CN(c1ncnc2[nH]ccc12)C1CCC2(CC1)CCN(C(=O)c1cc3ccccc3s1)CC2` [Compound 105, Benzo[b]thiophen-2-yl-{9-[methyl-(7H-pyrrolo[2,3-d]pyrimidin-4-yl)-amino]-3-aza-spiro[5.5]undec-3-yl}-methanone], the IC50 on JAK2 was in the range of 100 to 1000 nM; at JAK1 it was 100 to 1000 nM; on JAK3, 1000 to 10000 nM.
